How the values were obtained:
S. aureus LMG 16217 = experiment: Individual activity: MIC of antibiotic alone, microdilution; type: cell-based, Staphylococcus aureus; details: S. aureus LMG 16217 (MRSA++)
Description: […] The individual activity may, for example, be evaluated simply by measuring the MIC (minimum inhibitory concentration), which is the lowest concentration sufficient to inhibit, in vitro, the growth of a bacterial strain, after treating different bacterial strains by different EOs transformed or not according to the method of the invention.
To do this, the stock solutions of EO (EO-C and EO-T) were first diluted in DMSO at the rate of 10 μl EO in 300 μl DMSO, They were agitated and stored at ambient temperature, away from the light, in glass tubes autoclaved with threaded cap. The individual activity of the EOs was measured by the microdilution method in a 96 well tray so as to obtain the MIC, value at which a solution inhibits bacterial growth. The bacterial strains treated were S. aureus LMG 15975 (methicillin-resistant Staphylococcus aureus, hereinafter referred to as MRSA÷), E. coli LMG 8223, E. coli LMG 15862, P. aeruginosa LMG 6395, S. aureus LMG 8064, S. aureus LMG 16217 (methicillin-resistant Staphylococcus aureus, hereinafter referred to as MRSA++), E. faecalis LMG 8222, K. pneumoniae LMG 20218 and E. aerogenes LMG 2094. Inocula of the bacterial strains were prepared by placing colonies of 18-24 hours of strains suspended in a sterile physiological solution (NaCl 0.85%). These inocula were then adjusted and diluted so as to obtain a final concentration of 5×10^5 CFU/ml. Concerning the test solutions, 300 μl of stock solutions of EO (diluted in DMSO) were added to 4.7 ml culture medium (for example to Mueller Hinton Broth), so as to obtain a solution of EO of 2 mg/ml which was then diluted in series by half in multi-well trays. The final percentage of DMSO in the wells is less than 5%. After inoculation, the multi-well trays were incubated for 18-24 hours at 37° C. and the presence of bacteria was viewed by adding methyl tetrazolium (MU).

S. aureus LMG 8064 = experiment: Individual activity: MIC by microdilution; type: cell-based, Staphylococcus aureus; details: MSSA LMG 8064 strain; PV alone
Description: (§1) Within the framework of this invention, the individual activity makes reference to the antimicrobial activity exerted by the EO itself. The individual activity may, for example, be evaluated simply by measuring the MIC (minimum inhibitory concentration), which is the lowest concentration sufficient to inhibit, in vitro, the growth of a bacterial strain, after treating different bacterial strains by different EOs transformed or not according to the method of the invention.
(§2) To do this, the stock solutions of EO (EO-C and EO-T) were first diluted in DMSO at the rate of 10 μl EO in 300 μl DMSO, They were agitated and stored at ambient temperature, away from the light, in glass tubes autoclaved with threaded cap. The individual activity of the EOs was measured by the microdilution method in a 96 well tray so as to obtain the MIC, value at which a solution inhibits bacterial growth. The bacterial strains treated were S. aureus LMG 15975 (methicillin-resistant Staphylococcus aureus, hereinafter referred to as MRSA÷), E. coli LMG 8223, E. coli LMG 15862, P. aeruginosa LMG 6395, S. aureus LMG 8064, S. aureus LMG 16217 (methicillin-resistant Staphylococcus aureus, hereinafter referred to as MRSA++), E. faecalis LMG 8222, K. pneumoniae LMG 20218 and E. aerogenes LMG 2094. […]

[1] = tested on: Staphylococcus aureus LMG 15975; experiment: Individual activity: MIC by microdilution in 96-well tray; type: cell-based; details: S. aureus LMG 15975 (MRSA+); substance alone
Description: as §1, §2

MIC of the antibiotic on this strain (S. aureus LMG 16217) [µg/mL]	MIC of PV (S. aureus LMG 8064) [µg/mL]	Individual activity MIC: PV/EO [1] [µg/mL]	Structure (SMILES)
64	–	–	CC1(C)S[C@@H]2[C@H](NC(=O)Cc3ccccc3)C(=O)N2[C@H]1C(=O)O [penicillin G]
64	–	–	CC1(C)S[C@@H]2[C@H](NC(=O)[C@H](N)c3ccc(O)cc3)C(=O)N2[C@H]1C(=O)O [amoxicillin]
64	0.015	4	CC1(C)S[C@@H]2[C@H](NC(=O)COc3ccccc3)C(=O)N2[C@H]1C(=O)O [PV, penicillin V]

Source: US12460153B2, “Method for transforming an essential oil” (PRANAROM INTERNATIONAL S.A., priority 2019, dated 2025)
